Laboratory results from patent publication US20170348258A1, “3-Amino Benzamide Derivative Serving As B-Lactam Auxiliary Antibiotic, Preparation Method and Use Thereof” (THE HONG KONG POLYTECHNIC UNIVERSITY, priority 2014, published 2017).
Converted amounts (≈) assume the structure as drawn.

Tests used:
[1] = system: LCC6 (wild type breast cancer cell line); assay: Cytotoxicity test (MTS/PMS); assay type: cell-based; details: LCC-6, 72 h; 3 days at 37° C.
From the text: (§1) The bacterial strains used in microbial susceptibility test were E. coli, S. aureus 29213 and B. subtilis 168. E. coli and S. aureus 29213 were obtained from the laboratory of the Hong Kong Polytechnic University. B. subtilis 168 was purchased from American Type Culture Collection (USA). The mammalian cell lines L929 (mouse peritoneal fibroblast), LCC6 (a wild type breast cancer cell line), LCC6MDR (P-gp over-expressed breast cancer cell line) were stocks in our department. Nutrient Agar, tryptone and yeast extract were purchased from Oxoid Limited (Nepean, Ontario, Canada). Luria-Bertani (LB) medium was prepared from 2 g tryptone, 1 g yeast extract, and 2 g sodium chloride in 200 ml deionized water and sterilized. Müller-Hinton broth (MHB), cation-adjusted Müller-Hinton broth (MHB) and trypticase soy broth (TSB) for microbial susceptibility test were purchased from Becton, Dickinson and Company (New Jersey, USA). A microplate reader (Bio-Rad Laboratories Model 680) is used to measure bacterial growth and cytotoxicity. An Olympus FSX100® Bio Imaging Navigator Microscope was used to observe the morphology of B. subtilis cell. The cell lines used in cytotoxicity test were stocks in our department. In this assay, a mouse fibroblast cell line (L929), a wild type breast cancer cell line (LCC6) and a P-gp-over-expressed breast cancer cell line (LCC6MDR) were mixed with compounds of various concentrations and made up to a final volume of 100 μL in 96-well plates. The cells were then incubated at 37° C. for 3 days. […] The MTS/PMS mixture (10 μL) was added into each well, and the plate was incubated at 37° C. for 2 hours. The absorbance at 490 nm was then measured with a microplate absorbance reader (Bio-Rad). The IC50 values were calculated using GraphPad (Prism 4.0). The selective index of each compound was calculated from the ratio between the toxicity level of L929 and the MIC value of S. aureus 29213. […] Two promising compounds […] were chosen to test on three mammalian cell lines.

[2] = Cytotoxicity test (MTS/PMS); assay type: cell-based; details: human, LCC6MDR cells (P-gp over-expressed breast cancer cell line); 3 days at 37° C.
From the text: as §1

[3] = system: L929 (mouse fibroblast cell line); assay: Cytotoxicity test (MTS/PMS); assay type: cell-based; details: L929, 72 h, 3 days at 37° C.
From the text: as §1

B. subtilis 168 = assay: Antibacterial susceptibility test (MIC, microbroth dilution); assay type: cell-based; details: Bacillus subtilis, 168; 18 hours at 37° C., >90% inhibition of bacterial growth; read-out: MIC, BS 168
From the text: (§2) The bacterial strains used in microbial susceptibility test were E. coli, S. aureus 29213 and B. subtilis 168. E. coli and S. aureus 29213 were obtained from the laboratory of the Hong Kong Polytechnic University. B. subtilis 168 was purchased from American Type Culture Collection (USA). The mammalian cell lines L929 (mouse peritoneal fibroblast), LCC6 (a wild type breast cancer cell line), LCC6MDR (P-gp over-expressed breast cancer cell line) were stocks in our department. Nutrient Agar, tryptone and yeast extract were purchased from Oxoid Limited (Nepean, Ontario, Canada). Luria-Bertani (LB) medium was prepared from 2 g tryptone, 1 g yeast extract, and 2 g sodium chloride in 200 ml deionized water and sterilized. Müller-Hinton broth (MHB), cation-adjusted Müller-Hinton broth (MHB) and trypticase soy broth (TSB) for microbial susceptibility test were purchased from Becton, Dickinson and Company (New Jersey, USA). A microplate reader (Bio-Rad Laboratories Model 680) is used to measure bacterial growth and cytotoxicity. An Olympus FSX100® Bio Imaging Navigator Microscope was used to observe the morphology of B. subtilis cell.
(§3) The minimum inhibitory concentration (MIC) of each compound was determined using microbroth dilution method according to the National Committee for Clinical Laboratory Standards (CLSI) guidelines. All Compounds were dissolved in DMSO and diluted in a serial two-fold manner. A single colony of bacterial strain on a TSB agar plate was inoculated in 5 mL MHB or CA-MHB. The bacterial cells were incubated at 37° C. until the optimal density (OD600) of the growing cells reached 1.0. The cells were then diluted to a final concentration of approximately 5×10^5 CFU/mL in a serial two-fold manner in a 96-well microtiter plate (Iwaki, Japan). Compound 3 and PC190723 were used as positive controls. […] Table 1 below summarizes the MIC of all synthesized compounds.

S. aureus 29213 = assay: as above; assay type: cell-based; details: Staphylococcus aureus, 29213; 18 hours at 37° C., >90% inhibition of bacterial growth
From the text: as §2, §3

E. coli = assay: as above; assay type: cell-based; details: Escherichia coli; 18 hours at 37° C., >90% inhibition of bacterial growth
From the text: as §2, §3

MRSA strain USA300#2960 = assay: Fractional Inhibitory Concentration Index (FICI) determination; assay type: cell-based, S. aureus
Experimental: The bacterial strains used in this study were clinically isolated MRSA strains USA300#757 and #2960 which were obtained from our laboratory. Determination of the Fractional Inhibitory Concentration Index (FICI) was adopted by the Müller-Hinton broth (MHB) dilution method as previously described. Twelve serial two-fold dilutions of PC190723, F332 and F361 were prepared in the 96-well microplate with concentration ranging from 512 to 0.25 μg/mL. A series of two-fold dilutions of ampicillin, cloxacillin and cefuroxime were also prepared following the same procedure. Lastly, the compounds and the β-lactams were mixed at a 1:1 ratio and subjected to two-fold dilution as described previously. Each microplate well contained 100 μL of MHB supplemented with compounds alone, β-lactams alone or the mixture of compounds and β-lactams. Overnight cultures of S. aureus in the Müller-Hinton broth was diluted to OD595 of 0.08-0.1 in saline and added in each of the microplate well. The plates were incubated at 37° C. for 20 h. All tests were performed in duplicate and the inhibition of bacterial growth was determined by visualization. The FICI of compounds and β-lactams were calculated as followed: FICI=(MIC of combination of compound and β-lactam/MIC of compound alone)+(MIC of combination of compound and β-lactam/MIC of β-lactam alone).

MRSA strain 3580 = assay: FICI of F332 with antibiotics; assay type: cell-based, S. aureus
MRSA strain 231 = assay: FICI of F332 with antibiotics; assay type: cell-based, S. aureus

Row | Compound | IC50 [1] [µM] | IC50 at 3 days [2] [µM] | IC50 [3] [µM] | MIC (B. subtilis 168) [µM] | MIC (S. aureus 29213) [µM] | MIC (E. coli) [µM] | FICI with Cefotaxime (MRSA strain USA300#2960) | FICI with Meropenem (MRSA strain USA300#2960) | other results
1 | CCCCCCCCCN(C)c1ccc(F)c(C(N)=O)c1F [Compound F361, 2,6-difluoro-3-(methyl(nonyl)amino)benzamide] | 60 | 52 | 60 | 1.57 (≈ 0.49 µg/mL) | 3.13 (≈ 0.978 µg/mL) | > 100 | 1.00 | 0.28 | 
2 | CCCCCCCCCNc1ccc(F)c(C(N)=O)c1F [Compound F332, 2,6-difluoro-3-(nonylamino)benzamide] | 78 | > 100 | > 100 | 3.13 (≈ 0.934 µg/mL) | 12.5 (≈ 3.73 µg/mL) | > 100 | 0.38 | 0.28 | FICI of F332 combined with Amoxicillin (MRSA strain 3580): 0.28; FICI of F332 combined with Cefuroxime (MRSA strain 3580): 0.06; FICI of F332 combined with Cloxacillin (MRSA strain 3580): 0.53; FICI of F332 combined with Meropenem (MRSA strain 3580): 1.25; FICI of F332 combined with Meticillin (MRSA strain 3580): 0.19; FICI of F332 combined with Amoxicillin (MRSA strain 231): 0.52; FICI of F332 combined with Cefuroxime (MRSA strain 231): 0.50; FICI of F332 combined with Cloxacillin (MRSA strain 231): 0.28; FICI of F332 combined with Meropenem (MRSA strain 231): 0.63; FICI of F332 combined with Meticillin (MRSA strain 231): 0.50; FICI with Ampicillin (MRSA strain USA300#2960): 0.28; FICI with Cefuroxime (MRSA strain USA300#2960): 0.38; FICI with Cloxacillin (MRSA strain USA300#2960): 1.02
